According to patent US12509437B2, “Substituted thiophene carboxamides and derivatives thereof as microbicides” (Bayer Aktiengesellschaft, priority 2019, dated 2025):
Like-named read-outs stand apart in the source and are kept apart here.

Key:
[1] = test system: Xanthomonas campestris pv. campestris; assay: Xanthomonas campestris pv. campestris in vitro cell test; type: cell-based; conditions: 24 h of incubation, read-out: efficacy (inhibition of bacteria growth; no direct activity); for inhibition at 5 ppm: 5 ppm of active ingredient; for inhibition at 20 ppm: 20 ppm of active ingredient
Protocol: (§1) • Solvent: DMSO • Culture medium: LB broth medium (Luria Broth Miller) Sigma • Inoculum: bacteria suspension Compounds were solubilized in DMSO and the solution used to prepare the required range of concentrations. The final concentration of DMSO used in the assay was ≤1%. Inoculum was prepared from a pre-culture of bacteria grown in liquid medium and diluted to the desired optical density (OD). Compounds were evaluated for their ability to inhibit bacteria growth in liquid culture assay. The compounds were added in the desired concentrations to culture medium containing the bacteria suspension. After 24 h of incubation, the efficacy of compounds was determined by spectrometric measurement of bacteria growth. Inhibition was determined by comparing the absorbance values in wells containing the compounds with the absorbance in control wells without active ingredients.

[2] = test system: Colletotrichum lindemuthianum; assay: Colletotrichum lindemuthianum in vitro cell test; type: cell-based; conditions: 144 h, 6 days incubation, read-out: efficacy (inhibition of fungal growth; no direct activity); for inhibition at 5 ppm: 5 ppm of active ingredient; for inhibition at 20 ppm: 20 ppm of active ingredient
Protocol: (§2) • Solvent: DMSO • Culture medium: 14.6 g anhydrous D-glucose (VWR), 7.1 g Mycological Peptone (Oxoid), 1.4 g granulated Yeast Extract (Merck), QSP 1 liter • Inoculum: spores suspension Fungicides were solubilized in DMSO and the solution used to prepare the required range of concentrations. The final concentration of DMSO used in the assay was ≤[…]1%. A spore suspension of C. lindemuthianum was prepared and diluted to the desired spore density. Fungicides were evaluated for their ability to inhibit spores germination and mycelium growth in liquid culture assay. The compounds were added in the desired concentration to the culture medium with spores. After 6 days incubation, fungi-toxicity of compounds was determined by spectrometric measurement of mycelium growth. Inhibition of fungal growth was determined by comparing the absorbance values in wells containing the fungicides with the absorbance in control wells without fungicides.

[3] = test system: Pseudomonas syringae pv. tomato; assay: Pseudomonas syringae pv. tomato in vitro cell test; type: cell-based; conditions: 20 ppm of active ingredient, 24 h of incubation, read-out: efficacy (inhibition of bacteria growth; no direct activity)
Protocol: as §1

[4] = LogP by HPLC on reversed phase columns (EEC directive 79/831 Annex V.A8); type: physicochemical; conditions: reversed phase HPLC columns
In short: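 LogP derived from retention time, interpolated linearly between bracketing alkan-2-one standards (3 to 16 carbons). Where several values exist for one method, all are listed with "+"; UV spectra 200–400 nm at peak maxima gave lambda-max.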

Alternaria alternata = Alternaria alternata in vitro cell test; type: cell-based; conditions: 120 h, 5 days incubation, read-out: efficacy (inhibition of fungal growth; no direct activity); for inhibition at 5 ppm: 5 ppm of active ingredient; for inhibition at 20 ppm: 20 ppm of active ingredient
Protocol: as §2, with “of A. alternata” for “of C. lindemuthianum”, “inhibit spore” for “inhibit spores”, “After 5” for “After 6”

Uromyces appendiculatus = assay: In vivo preventive test on Uromyces appendiculatus (bean rust); conditions: 240 h, sprayed 72 hours before inoculation, evaluated 10 days after inoculation, read-out: efficacy; for pest or weed control at 500 ppm: 500 ppm of active ingredient; for pest or weed control at 31 ppm: 31 ppm of active ingredient; for pest or weed control at 125 ppm: 125 ppm of active ingredient
Protocol: (§3) The tested active ingredients were prepared by homogenization in a mixture of acetone/Dimethyl sulfoxide/Tween®, and then diluted with water to obtain the desired active material concentration.
The young plants of bean were treated by spraying the active ingredient prepared as described above. Control plants were treated only with an aqueous solution of acetone/Dimethyl sulfoxide/Tween®.
After 72 hours, the plants were contaminated by spraying the leaves with an aqueous suspension of Uromyces appendiculatus spores. The contaminated bean plants were incubated for 24 hours at 20° C. and at 100% relative humidity and then for 9 days at 20° C. and at 70-80% relative humidity.
The test was evaluated 10 days after the inoculation. 0% means an efficacy which corresponds to that of the control plants while an efficacy of 100% means that no disease was observed.

[5] = test system: salicylate responsive promoter sequence of the PR1 (pathogenesis-related protein I) gene (AT2G14610); assay: Induction of defense gene expression in Arabidopsis thaliana (PR1 promoter-GFP reporter plants); type: in vivo; conditions: 72 h, 3rd day after spraying, mock treated leaves set as 1.00, read-out: relative fluorescence value
Protocol: Arabidopsis thaliana reporter plants containing the coding sequence of a green fluorescent protein (GFP) linked to the salicylate responsive promoter sequence of the PR1 (pathogenesis-related protein I) gene (AT2G14610) were grown for five days and then sprayed with compounds. On the 3rd day after spraying, plant fluorescence was assessed with a MacroFluo instrument from Leica Microsystems (Wetzlar, Germany). Fluorescences were quantified with the Meta-Morph Microscopy Automation & Image Analysis Software (Molecular Devices, Sunnyvale, Calif., United States). Background fluorescence in mock treated leaves was set as 1.00.

Peronospora parasitica = assay: In vivo preventive test on Peronospora parasitica (Crucifer downy mildew) on cabbage; conditions: Hyaloperonospora parasitica, 120 h, sprayed 72 hours before inoculation, evaluated 5 days after inoculation, read-out: efficacy; for pest or weed control at 31 ppm: 31 ppm of active ingredient; for pest or weed control at 125 ppm: 125 ppm of active ingredient; for pest or weed control at 500 ppm: 500 ppm of active ingredient
Protocol: as §3
(§4) The young plants of cabbage were treated by spraying the active ingredient prepared as described above. Control plants were treated only with an aqueous solution of acetone/Dimethyl sulfoxide/Tween®.
After 72 hours, the plants were contaminated by spraying the leaves with an aqueous suspension of Peronospora parasitica spores. The contaminated cabbage plants were incubated for 5 days at 20° C. and at 100% relative humidity.
The test was evaluated 5 days after the inoculation. 0% means an efficacy which corresponds to that of the control plants while an efficacy of 100% means that no disease was observed.

[6] = test system: Xanthomonas campestris pv. campestris; assay: In vivo preventive test on Xanthomonas campestris pv. campestris (black rot on cabbage); conditions: Xanthomonas campestris, sprayed 72 hours before inoculation, evaluated 8 or 10 days after inoculation, read-out: efficacy; for pest or weed control at 500 ppm: 500 ppm of active ingredient
Protocol: as §3, §4
After 72 hours, the plants were contaminated by spraying the leaves with an aqueous bacteria suspension of Xanthomonas campestris pv. campestris. The contaminated cabbage plants were incubated for 8 or 10 days at 27° C. at 95% relative humidity.
The test was evaluated 8 or 10 days after the inoculation. 0% means an efficacy which corresponds to that of the control plants while an efficacy of 100% means that no disease was observed.

[7] = preparation examples, method not indicated, read-out: Log P

| SMILES | inhibition at 5 ppm [1] | inhibition at 20 ppm [1] | inhibition at 5 ppm [2] | inhibition at 20 ppm [3] | chromatographic logP ([4]; method [a]) | inhibition at 5 ppm (Alternaria alternata) | inhibition at 20 ppm (Alternaria alternata) | pest or weed control at 500 ppm (Uromyces appendiculatus) | inhibition at 20 ppm [2] | fold induction at 75 ppm [5] | fold induction at 300 ppm [5] | pest or weed control at 31 ppm (Peronospora parasitica) | pest or weed control at 125 ppm (Peronospora parasitica) | pest or weed control at 500 ppm (Peronospora parasitica) | pest or weed control at 31 ppm (Uromyces appendiculatus) | pest or weed control at 125 ppm (Uromyces appendiculatus) | chromatographic logP [4, 7] | pest or weed control at 500 ppm [6] | pest or weed control at 125 ppm ([6]; 125 ppm of active ingredient) | pest or weed control at 31 ppm ([6]; 31 ppm of active ingredient) |
| --- | --- | --- | --- | --- | --- | --- | --- | --- | --- | --- | --- | --- | --- | --- | --- | --- | --- | --- | --- | --- |
| COC(=O)C1(NC(=O)c2sc(Br)c(Br)c2C)CCC(F)(F)CC1 [I.005] | ≤ 30% | ≤ 30% | ≤ 30% | ≤ 30% | 3.83 | ≤ 30% | ≤ 30% | 90 to 100% |  |  |  |  |  |  |  |  |  |  |  |  |
| COC(=O)C1(NC(=O)c2sc(Br)c(Br)c2C)CSC1 [I.015] | ≤ 30% | ≤ 30% | ≤ 30% | ≤ 30% | 3.31 | ≤ 30% |  | 90 to 100% | ≤ 30% | > 2 | > 2 | 90 to 100% | 90 to 100% | 90 to 100% | 90 to 100% |  |  |  |  |  |
| CCOC(=O)C(CC(N)=O)NC(=O)c1sc(Br)c(Br)c1C (stereo not drawn) [I.016] | ≤ 30% | ≤ 30% | ≤ 30% | ≤ 30% | 2.26 | ≤ 30% | ≤ 30% | 80 to 89% | ≤ 30% | > 2 | > 2 | 90 to 100% | 90 to 100% | 90 to 100% | 90 to 100% | 90 to 100% |  |  |  |  |
| CCOC(=O)C1(NC(=O)CNC(=O)c2sc(Br)c(Br)c2C)CC1 [I.024, ethyl 1-({N-[(4,5-dibromo-3-methyl-2-thienyl)carbonyl]glycyl}amino)cyclopropanecarboxylate] | ≤ 30% | ≤ 30% | ≤ 30% | ≤ 30% |  | ≤ 30% | ≤ 30% |  | ≤ 30% | > 2 |  |  |  |  |  |  | 2.55 |  |  |  |
| CCOC(=O)C(COC)NC(=O)c1sc(Br)c(Br)c1C (stereo not drawn) [I.034] | ≤ 30% | ≤ 30% | ≤ 30% | ≤ 30% | 3.46 | ≤ 30% | ≤ 30% | 90 to 100% |  |  | > 2 |  |  |  |  |  |  | 80 to 89% |  |  |
| COC(=O)[C@H](CCCNC(=N)N)NC(=O)c1sc(Br)c(Br)c1C [I.035] | ≤ 30% | ≤ 30% | ≤ 30% | ≤ 30% | 1.74 | ≤ 30% |  | 80 to 89% | ≤ 30% |  | > 2 |  | 70 to 79% | 80 to 89% |  | 80 to 89% |  |  | 80 to 89% |  |
| CCSC(=O)C1(NC(=O)c2sc(Cl)c(Cl)c2C)CC1 [I.049, S-ethyl 1-{[(4,5-dichloro-3-methyl-2-thienyl)carbonyl]amino}cyclopropanecarbothioate] | ≤ 30% | ≤ 30% | ≤ 30% | ≤ 30% |  | ≤ 30% |  | 80 to 89% |  | > 2 | > 2 | 90 to 100% | 90 to 100% | 90 to 100% | 70 to 79% | 90 to 100% | 3.67 | 80 to 89% |  | 80 to 89% |
| CCOC(=O)CN(C)C(=O)c1sc(Br)c(Br)c1C [I.056] | ≤ 30% | ≤ 30% | ≤ 30% | ≤ 30% | 3.23 | ≤ 30% | ≤ 30% |  |  |  |  |  | 80 to 89% | 90 to 100% |  |  |  |  |  |  |
| CONC(=O)[C@@H](NC(=O)c1sc(Br)c(Br)c1C)C(C)C [I.074, N^2-[(4,5-dibromo-3-methyl-2-thienyl)carbonyl]-N-methoxyvalinamide] | ≤ 30% | ≤ 30% | ≤ 30% | ≤ 30% |  | ≤ 30% | ≤ 30% |  | ≤ 30% |  | > 2 |  |  |  |  |  | 2.77 |  |  |  |
| COC(=O)CC[C@H](NC(=O)c1sc(Br)c(Br)c1C)C(=O)OC [I.136] | ≤ 30% | ≤ 30% | ≤ 30% | ≤ 30% | 3.17 | ≤ 30% | ≤ 30% | 90 to 100% | ≤ 30% | > 2 | > 2 | 80 to 89% | 90 to 100% | 90 to 100% | 90 to 100% | 90 to 100% |  |  |  |  |
